Species: Rattus norvegicus
Experiment: Open TG-GATES - Regimen: Daily Repeat
Type: toxicity, organism-based, Sprague-Dawley
Parameters: regimen Daily Repeat, gender Male, age 6 weeks
Settings: in vivo, po, 75 mg/kg, route gavage, dose level High; for APTT / Bas / Eos / Fbg / Hb / Ht / Lym / MCH / MCHC / MCV / Mono / Neu / PT / Plat / RBC / Ret / WBC: tissue Blood; for KIDNEY_L / KIDNEY_R / KIDNEY_TOTAL: tissue Kidney; for LIVER: tissue Liver; for A/G / ALP / ALT / AST / BUN / CRE / Ca / Cl / DBIL / GLC / IP / K / LDH / Na / PL / RALB / TBIL / TC / TG / TP / gamma-GTP: tissue Plasma

Compound `NC1=NC(=O)C(c2ccccc2)O1` (configuration not stated) [PEMOLINE] has a TERMINAL_BW (72 h, time 3 day) of 210.2 g, an APTT (72 h, time 3 day) of 16.1 s and a Bas (72 h, time 3 day) of 0%. It also gave an Eos (72 h, time 3 day) of 1%, a Fbg (72 h, time 3 day) of 378.8 mg/dL and a Hb (72 h, time 3 day) of 13.2 g/dL. The Ht (72 h, time 3 day) was 38.4%, the Lym (72 h, time 3 day) was 72.6% and the MCH (72 h, time 3 day) was 21.4 pg. It also gave an MCHC (72 h, time 3 day) of 34.3%, an MCV (72 h, time 3 day) of 62.4 fL and a Mono (72 h, time 3 day) of 4%. The Neu (72 h, time 3 day) was 21.4%, the PT (72 h, time 3 day) was 13.1 s and the Plat (72 h, time 3 day) was 116.2 x10_4/uL. The RBC (72 h, time 3 day) was 614.2 x10_4/ul, the Ret (72 h, time 3 day) was 5.7% and the WBC (72 h, time 3 day) was 96.9 x10_2/uL. It also gave a KIDNEY_L (72 h, time 3 day) of 1 g, a KIDNEY_R (72 h, time 3 day) of 1 g and a KIDNEY_TOTAL (72 h, time 3 day) of 1.9 g. For the same compound, the LIVER (72 h, time 3 day) was 9.5 g, the A/G (72 h, time 3 day) was 0.9 and the ALP (72 h, time 3 day) was 1189.4 IU/L. It also gave an ALT (72 h, time 3 day) of 40.6 IU/L, an AST (72 h, time 3 day) of 91.6 IU/L and a BUN (72 h, time 3 day) of 14.4 mg/dL. For the same compound, the CRE (72 h, time 3 day) was 0.2 mg/dL, the Ca (72 h, time 3 day) was 10.5 mg/dL and the Cl (72 h, time 3 day) was 106 meq/L. The DBIL (72 h, time 3 day) was 0.014 mg/dL, the GLC (72 h, time 3 day) was 162.2 mg/dL and the IP (72 h, time 3 day) was 7.4 mg/dL. For the same compound, the K (72 h, time 3 day) was 4 meq/L, the LDH (72 h, time 3 day) was 46.6 IU/L and the Na (72 h, time 3 day) was 142.6 meq/L. For the same compound, the PL (72 h, time 3 day) was 118.6 mg/dL, the RALB (72 h, time 3 day) was 2.6 g/dL and the TBIL (72 h, time 3 day) was 0.03 mg/dL. The TC (72 h, time 3 day) was 70.8 mg/dL, the TG (72 h, time 3 day) was 40.2 mg/dL and the TP (72 h, time 3 day) was 5.4 g/dL. For the same compound, the gamma-GTP (72 h, time 3 day) was 1 IU/L, the TERMINAL_BW ([…], time 7 day) was 237.7 g and the TERMINAL_BW ([…], time 14 day) was 305 g. For the same compound, the TERMINAL_BW ([…], time 28 day) was 376.6 g, the APTT ([…], time 7 day) was 16.7 s and the Bas ([…], time 7 day) was 0%. For the same compound, the Eos ([…], time 7 day) was 1%, the Fbg ([…], time 7 day) was 294.8 mg/dL and the Hb ([…], time 7 day) was 13.9 g/dL. The Ht ([…], time 7 day) was 40.7%, the Lym ([…], time 7 day) was 78% and the MCH ([…], time 7 day) was 21.9 pg. For the same compound, the MCHC ([…], time 7 day) was 34.2%, the MCV ([…], time 7 day) was 63.8 fL and the Mono ([…], time 7 day) was 3%. The Neu ([…], time 7 day) was 17.8%, the PT ([…], time 7 day) was 12.9 s and the Plat ([…], time 7 day) was 131.8 x10_4/uL. It also gave an RBC ([…], time 7 day) of 638.8 x10_4/ul, a Ret ([…], time 7 day) of 6.6% and a WBC ([…], time 7 day) of 88.3 x10_2/uL. It also gave an APTT ([…], time 14 day) of 16.9 s, a Bas ([…], time 14 day) of 0% and an Eos ([…], time 14 day) of 1.2%. It also gave a Fbg ([…], time 14 day) of 259.4 mg/dL, a Hb ([…], time 14 day) of 14.6 g/dL and a Ht ([…], time 14 day) of 41.8%. It also gave a Lym ([…], time 14 day) of 72.4%, an MCH ([…], time 14 day) of 21.1 pg and an MCHC ([…], time 14 day) of 34.8%. It also gave an MCV ([…], time 14 day) of 60.5 fL, a Mono ([…], time 14 day) of 2.8% and a Neu ([…], time 14 day) of 23.2%. The PT ([…], time 14 day) was 13 s, the Plat ([…], time 14 day) was 105.3 x10_4/uL and the RBC ([…], time 14 day) was 691.2 x10_4/ul. It also gave a Ret ([…], time 14 day) of 4.7%, a WBC ([…], time 14 day) of 89.3 x10_2/uL and an APTT ([…], time 28 day) of 18.6 s. It also gave a Bas ([…], time 28 day) of 0.4%, an Eos ([…], time 28 day) of 1% and a Fbg ([…], time 28 day) of 255.2 mg/dL. For the same compound, the Hb ([…], time 28 day) was 15.7 g/dL, the Ht ([…], time 28 day) was 44.2% and the Lym ([…], time 28 day) was 79.4%. It also gave an MCH ([…], time 28 day) of 20.8 pg, an MCHC ([…], time 28 day) of 35.6% and an MCV ([…], time 28 day) of 58.5 fL. It also gave a Mono ([…], time 28 day) of 2.8%, a Neu ([…], time 28 day) of 16.2% and a PT ([…], time 28 day) of 12.6 s. It also gave a Plat ([…], time 28 day) of 90.5 x10_4/uL, an RBC ([…], time 28 day) of 755.2 x10_4/ul and a Ret ([…], time 28 day) of 2.8%. For the same compound, the WBC ([…], time 28 day) was 90.3 x10_2/uL, the KIDNEY_L ([…], time 7 day) was 1.1 g and the KIDNEY_R ([…], time 7 day) was 1.1 g. The KIDNEY_TOTAL ([…], time 7 day) was 2.1 g, the KIDNEY_L ([…], time 14 day) was 1.3 g and the KIDNEY_R ([…], time 14 day) was 1.3 g. For the same compound, the KIDNEY_TOTAL ([…], time 14 day) was 2.6 g, the KIDNEY_L ([…], time 28 day) was 1.5 g and the KIDNEY_R ([…], time 28 day) was 1.4 g. It also gave a KIDNEY_TOTAL ([…], time 28 day) of 2.9 g, an LIVER ([…], time 7 day) of 10.9 g and an LIVER ([…], time 14 day) of 13.8 g. It also gave an LIVER ([…], time 28 day) of 16.2 g, an A/G ([…], time 7 day) of 0.9 and an ALP ([…], time 7 day) of 1601.8 IU/L. The ALT ([…], time 7 day) was 44 IU/L, the AST ([…], time 7 day) was 83.2 IU/L and the BUN ([…], time 7 day) was 15 mg/dL. It also gave a CRE ([…], time 7 day) of 0.2 mg/dL, a Ca ([…], time 7 day) of 10.6 mg/dL and a Cl ([…], time 7 day) of 105.8 meq/L. It also gave a DBIL ([…], time 7 day) of 0.015 mg/dL, a GLC ([…], time 7 day) of 174.8 mg/dL and an IP ([…], time 7 day) of 7.7 mg/dL. It also gave a K ([…], time 7 day) of 4.4 meq/L, an LDH ([…], time 7 day) of 65 IU/L and a Na ([…], time 7 day) of 142.5 meq/L. For the same compound, the PL ([…], time 7 day) was 128.2 mg/dL, the RALB ([…], time 7 day) was 2.6 g/dL and the TBIL ([…], time 7 day) was 0.025 mg/dL. The TC ([…], time 7 day) was 65.8 mg/dL, the TG ([…], time 7 day) was 65.5 mg/dL and the TP ([…], time 7 day) was 5.6 g/dL. The gamma-GTP ([…], time 7 day) was 1 IU/L, the A/G ([…], time 14 day) was 0.8 and the ALP ([…], time 14 day) was 1468 IU/L. For the same compound, the ALT ([…], time 14 day) was 39 IU/L, the AST ([…], time 14 day) was 79.8 IU/L and the BUN ([…], time 14 day) was 14.8 mg/dL. For the same compound, the CRE ([…], time 14 day) was 0.2 mg/dL, the Ca ([…], time 14 day) was 11.1 mg/dL and the Cl ([…], time 14 day) was 106 meq/L. The DBIL ([…], time 14 day) was 0.012 mg/dL, the GLC ([…], time 14 day) was 176.2 mg/dL and the IP ([…], time 14 day) was 8.1 mg/dL. It also gave a K ([…], time 14 day) of 4 meq/L, an LDH ([…], time 14 day) of 79.2 IU/L and a Na ([…], time 14 day) of 143.4 meq/L. For the same compound, the PL ([…], time 14 day) was 135 mg/dL, the RALB ([…], time 14 day) was 2.7 g/dL and the TBIL ([…], time 14 day) was 0.022 mg/dL. It also gave a TC ([…], time 14 day) of 69.2 mg/dL, a TG ([…], time 14 day) of 86.8 mg/dL and a TP ([…], time 14 day) of 5.9 g/dL. For the same compound, the gamma-GTP ([…], time 14 day) was 1 IU/L, the A/G ([…], time 28 day) was 0.8 and the ALP ([…], time 28 day) was 1096 IU/L. It also gave an ALT ([…], time 28 day) of 44.6 IU/L, an AST ([…], time 28 day) of 77.6 IU/L and a BUN ([…], time 28 day) of 16.4 mg/dL. The CRE ([…], time 28 day) was 0.2 mg/dL, the Ca ([…], time 28 day) was 11.3 mg/dL and the Cl ([…], time 28 day) was 105 meq/L. For the same compound, the DBIL ([…], time 28 day) was 0.024 mg/dL, the GLC ([…], time 28 day) was 179.2 mg/dL and the IP ([…], time 28 day) was 7.6 mg/dL. For the same compound, the K ([…], time 28 day) was 4 meq/L, the LDH ([…], time 28 day) was 81.4 IU/L and the Na ([…], time 28 day) was 143.6 meq/L. It also gave a PL ([…], time 28 day) of 126.8 mg/dL, an RALB ([…], time 28 day) of 2.8 g/dL and a TBIL ([…], time 28 day) of 0.034 mg/dL. The TC ([…], time 28 day) was 59 mg/dL, the TG ([…], time 28 day) was 132 mg/dL and the TP ([…], time 28 day) was 6.2 g/dL. The gamma-GTP ([…], time 28 day) was 1 IU/L.
